ChEMBL document CHEMBL4665678, “Overview of AKR1C3: Inhibitor Achievements and Disease Insights” (J Med Chem, 2020)
Numbering of substitutions follows the chain as printed.

Assays:
[1] = target: T1, Aldo-keto reductase family 1 member C3 (Homo sapiens, UniProt P42330); assay: Inhibition of human AKR1C3 expressed in Escherichia coli incubated for 30 mins in presence of NADPH regeneration system by UHPLC analysis
T1 sequence (P42330 whole entry): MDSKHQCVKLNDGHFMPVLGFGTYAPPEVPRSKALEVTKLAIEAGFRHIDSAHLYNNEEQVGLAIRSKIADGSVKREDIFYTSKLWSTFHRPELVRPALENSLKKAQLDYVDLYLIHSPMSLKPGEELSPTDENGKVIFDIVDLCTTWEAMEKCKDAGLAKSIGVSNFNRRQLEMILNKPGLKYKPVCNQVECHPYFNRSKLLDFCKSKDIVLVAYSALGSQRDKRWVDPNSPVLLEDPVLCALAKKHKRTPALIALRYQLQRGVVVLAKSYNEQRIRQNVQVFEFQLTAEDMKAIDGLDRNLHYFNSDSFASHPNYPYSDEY

[2] = target: T1, Aldo-keto reductase family 1 member C3; assay: Inhibition of AKR1C3 (unknown origin) expressed in human HCT116 cells incubated for 2 to 4 hrs by UHPLC analysis; type: cell-based, HCT-116
[3] = target: T1, Aldo-keto reductase family 1 member C3; assay: Inhibition of human AKR1C3 expressed in Escherichia coli incubated for 30 mins in presence of NADPH regeneration system by UHPLC method based Lineweaver-Burk double-reciprocal plot analysis
[4] = target: T2, Aldo-keto reductase family 1 member C2 (Homo sapiens, UniProt P52895); assay: Inhibition NH2-terminal His6-tagged recombinant human AKR1C2 expressed in Escherichia coli BL21(DE3) cells using assessed as phenanthrenequinone reduction
T2 sequence (P52895 whole entry): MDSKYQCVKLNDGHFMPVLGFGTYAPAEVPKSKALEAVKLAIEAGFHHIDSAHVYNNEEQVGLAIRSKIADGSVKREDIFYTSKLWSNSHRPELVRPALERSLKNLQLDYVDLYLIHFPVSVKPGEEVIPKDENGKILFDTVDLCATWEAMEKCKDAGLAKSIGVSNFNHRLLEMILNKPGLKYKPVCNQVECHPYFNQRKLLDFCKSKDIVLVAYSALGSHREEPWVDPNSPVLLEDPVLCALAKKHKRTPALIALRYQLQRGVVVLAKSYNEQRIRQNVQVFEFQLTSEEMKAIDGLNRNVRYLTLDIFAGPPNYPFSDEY

[5] = target: T3, Aldo-keto reductase family 1 member C1 (Homo sapiens, UniProt Q04828); assay: Inhibition of NH2-terminal His6-tagged recombinant human AKR1C1 expressed in Escherichia coli BL21(DE3) cells using assessed as phenanthrenequinone reduction
T3 sequence (Q04828 whole entry): T2 sequence (P52895 whole entry) with V38T, H47R, V54L, S87C, M151V, H170R, L172Q

[6] = target: T4, Aldo-keto reductase family 1 member C3 (Homo sapiens) (UniProt P42330); assay: Inhibition NH2-terminal His6-tagged recombinant human AKR1C3 expressed in Escherichia coli BL21(DE3) cells using assessed as phenanthrenequinone reduction
T4 sequence (whole entry): T1 sequence (P42330 whole entry)

[7] = target: T1, Aldo-keto reductase family 1 member C3; assay: Inhibition of human AKR1C3 expressed in Escherichia coli preincubated for 15 mins followed by Adion addition and measured after 30 mins by HPLC analysis
[8] = target: T1, Aldo-keto reductase family 1 member C3; assay: Inhibition of AKR1C3 (unknown origin) using 9,10-phenanthrenequinone as substrate
[9] = target: T1, Aldo-keto reductase family 1 member C3; assay: Inhibition of AKR1C3 (unknown origin) using 4-androstene-3,17-dione as substrate
[10] = target: T5, Prostaglandin G/H synthase 1 (Ovis aries, UniProt P05979); assay: Inhibition of ovine COX-1 using [14C] arachidonic acid as substrate preincubated for 20 mins followed by substrate addition measured after 30 sec by thin layer chromatography assay
T5 sequence (P05979 whole entry): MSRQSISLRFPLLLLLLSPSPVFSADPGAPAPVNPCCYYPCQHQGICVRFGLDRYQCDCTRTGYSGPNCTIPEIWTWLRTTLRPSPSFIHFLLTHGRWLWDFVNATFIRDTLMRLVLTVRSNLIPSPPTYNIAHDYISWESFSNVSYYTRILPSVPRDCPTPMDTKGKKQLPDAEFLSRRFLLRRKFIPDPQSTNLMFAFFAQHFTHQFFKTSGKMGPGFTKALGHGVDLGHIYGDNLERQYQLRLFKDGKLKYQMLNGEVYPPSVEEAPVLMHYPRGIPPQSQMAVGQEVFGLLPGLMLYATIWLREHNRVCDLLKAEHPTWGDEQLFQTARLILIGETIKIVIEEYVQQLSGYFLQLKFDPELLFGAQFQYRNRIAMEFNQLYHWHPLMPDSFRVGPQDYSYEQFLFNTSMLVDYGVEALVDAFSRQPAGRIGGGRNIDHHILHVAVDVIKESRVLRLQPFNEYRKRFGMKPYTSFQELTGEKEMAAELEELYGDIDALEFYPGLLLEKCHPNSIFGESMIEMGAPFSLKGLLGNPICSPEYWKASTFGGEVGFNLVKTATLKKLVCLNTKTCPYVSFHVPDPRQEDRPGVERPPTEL

AKR1C2 = target: T6, AKR1C2 (Homo sapiens, UniProt P52895); assay: Inhibition of AKR1C2 (unknown origin) using 9,10-phenanthrenequinone as substrate at 60 uM relative to control; details: probe 9,10-phenanthrenequinone
T6 sequence (P52895 whole entry): T2 sequence (P52895 whole entry)

[11] = target: T7, Prostaglandin G/H synthase 2 (Homo sapiens, UniProt P35354); assay: Inhibition of human COX-2 expressed in Sf9 insect cells using [14C] arachidonic acid as substrate preincubated for 20 mins followed by substrate addition measured after 30 sec by thin layer chromatography assay
T7 sequence (P35354 whole entry): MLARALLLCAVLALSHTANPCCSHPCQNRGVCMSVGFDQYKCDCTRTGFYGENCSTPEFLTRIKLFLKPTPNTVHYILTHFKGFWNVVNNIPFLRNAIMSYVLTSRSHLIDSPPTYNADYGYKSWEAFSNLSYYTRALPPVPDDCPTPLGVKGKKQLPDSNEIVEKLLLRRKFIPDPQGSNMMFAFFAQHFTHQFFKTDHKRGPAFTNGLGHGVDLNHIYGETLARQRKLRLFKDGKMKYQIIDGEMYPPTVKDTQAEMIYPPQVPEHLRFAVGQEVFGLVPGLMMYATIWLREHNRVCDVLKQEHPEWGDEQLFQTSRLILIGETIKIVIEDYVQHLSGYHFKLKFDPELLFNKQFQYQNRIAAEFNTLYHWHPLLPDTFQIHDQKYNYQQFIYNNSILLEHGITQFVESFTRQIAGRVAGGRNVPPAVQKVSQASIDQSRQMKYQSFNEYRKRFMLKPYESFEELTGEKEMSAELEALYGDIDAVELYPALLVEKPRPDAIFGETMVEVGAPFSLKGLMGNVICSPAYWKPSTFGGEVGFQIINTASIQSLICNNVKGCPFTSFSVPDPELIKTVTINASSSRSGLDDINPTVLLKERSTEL

AKR1C1 = target: T8, AKR1C1 (Homo sapiens, UniProt Q04828); assay: Inhibition of AKR1C1 (unknown origin) using 9,10-phenanthrenequinone as substrate at 60 uM relative to control; details: probe 9,10-phenanthrenequinone
T8 sequence (Q04828 whole entry): T2 sequence (P52895 whole entry) with V38T, H47R, V54L, S87C, M151V, H170R, L172Q

[12] = target: T1, Aldo-keto reductase family 1 member C3; assay: Inhibition of N-terminal His-tagged human AKR1C3 (1 to 323 residues) expressed in Escherichia coli using 4-adione as substrate in presence of NADPH by fluorescence method
[13] = target: T1, Aldo-keto reductase family 1 member C3; assay: Inhibition of AKR1C3 (unknown origin) expressed in human HCT116 cells incubated for 3 to 6 hrs by UHPLC analysis; type: cell-based, HCT-116

Nc1cc(C(F)(F)F)c(-c2cc(N3CCOCC3)nc(N3CCOCC3)n2)cn1 [BUPARLISIB]
IC50 [1]: 9.5 µM | IC50 [2]: 7.9 µM | Ki [3]: 14 µM

CC/C=C\CC1C(=O)CCC1CC(=O)OC (stereo unspecified) [METHYL JASMONATE]
Kis [4]: 49 uM/L | Kis [5]: 162 uM/L | Kis [6]: 153 µM/L

CO[C@@H]1C=C[C@@]23c4cc5c(cc4CO[C@]2(O)CN(C)[C@H]3C1)OCO5 [TAZETTINE]
IC50 [7]: 15.8 µM

COc1ccc2c(c1)c(CCNC(C)=O)cn2C(=O)c1ccc(Cl)cc1
IC50 [8]: 7.8 µM | IC50 [9]: 11.4 µM | IC50 [10]: > 60 µM | inhibition at 60 µM (AKR1C2): < 10% | IC50 [11]: > 60 µM | inhibition at 60 µM (AKR1C1): < 10%

COc1ccc2cc3[n+](cc2c1OC)CCc1cc2c(cc1-3)OCO2 [BERBERINE]
IC50 [12]: 4.08 µM

CCc1cnn2c(NCc3ccc[n+]([O-])c3)cc(N3CCCC[C@H]3CCO)nc12 [DINACICLIB]
Ki ([1]; read-out: Ki(app)): 0.07 µM | IC50 [13]: 0.23 µM
